Laboratory results as given in ChEMBL document CHEMBL5291721, “A preclinical secondary pharmacology resource illuminates target-adverse drug reaction associations of marketed drugs” (Nat Commun, 2023).

Columns and labels:
[1] = target: Melanocortin receptor 3 (Homo sapiens, UniProt P41968)
[2] = target: 3',5'-cyclic-AMP phosphodiesterase 4D (Homo sapiens, UniProt Q08499); type: functional
[3] = target: T1, Adenosine receptor A3 (Homo sapiens, UniProt P0DMS8)
T1 sequence (P0DMS8 whole entry): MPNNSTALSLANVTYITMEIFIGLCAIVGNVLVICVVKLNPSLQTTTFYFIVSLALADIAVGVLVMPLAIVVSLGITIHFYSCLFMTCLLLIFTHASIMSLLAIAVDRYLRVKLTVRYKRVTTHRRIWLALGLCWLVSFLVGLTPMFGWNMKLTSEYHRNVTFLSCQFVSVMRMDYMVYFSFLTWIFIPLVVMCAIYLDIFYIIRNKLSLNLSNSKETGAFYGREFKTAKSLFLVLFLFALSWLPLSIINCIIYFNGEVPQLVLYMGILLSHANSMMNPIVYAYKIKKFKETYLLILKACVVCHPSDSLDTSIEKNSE

[4] = target: cGMP-inhibited 3',5'-cyclic phosphodiesterase 3A (Homo sapiens, UniProt Q14432); type: functional
Chain of cGMP-inhibited 3',5'-cyclic phosphodiesterase 3A (Q14432 whole entry): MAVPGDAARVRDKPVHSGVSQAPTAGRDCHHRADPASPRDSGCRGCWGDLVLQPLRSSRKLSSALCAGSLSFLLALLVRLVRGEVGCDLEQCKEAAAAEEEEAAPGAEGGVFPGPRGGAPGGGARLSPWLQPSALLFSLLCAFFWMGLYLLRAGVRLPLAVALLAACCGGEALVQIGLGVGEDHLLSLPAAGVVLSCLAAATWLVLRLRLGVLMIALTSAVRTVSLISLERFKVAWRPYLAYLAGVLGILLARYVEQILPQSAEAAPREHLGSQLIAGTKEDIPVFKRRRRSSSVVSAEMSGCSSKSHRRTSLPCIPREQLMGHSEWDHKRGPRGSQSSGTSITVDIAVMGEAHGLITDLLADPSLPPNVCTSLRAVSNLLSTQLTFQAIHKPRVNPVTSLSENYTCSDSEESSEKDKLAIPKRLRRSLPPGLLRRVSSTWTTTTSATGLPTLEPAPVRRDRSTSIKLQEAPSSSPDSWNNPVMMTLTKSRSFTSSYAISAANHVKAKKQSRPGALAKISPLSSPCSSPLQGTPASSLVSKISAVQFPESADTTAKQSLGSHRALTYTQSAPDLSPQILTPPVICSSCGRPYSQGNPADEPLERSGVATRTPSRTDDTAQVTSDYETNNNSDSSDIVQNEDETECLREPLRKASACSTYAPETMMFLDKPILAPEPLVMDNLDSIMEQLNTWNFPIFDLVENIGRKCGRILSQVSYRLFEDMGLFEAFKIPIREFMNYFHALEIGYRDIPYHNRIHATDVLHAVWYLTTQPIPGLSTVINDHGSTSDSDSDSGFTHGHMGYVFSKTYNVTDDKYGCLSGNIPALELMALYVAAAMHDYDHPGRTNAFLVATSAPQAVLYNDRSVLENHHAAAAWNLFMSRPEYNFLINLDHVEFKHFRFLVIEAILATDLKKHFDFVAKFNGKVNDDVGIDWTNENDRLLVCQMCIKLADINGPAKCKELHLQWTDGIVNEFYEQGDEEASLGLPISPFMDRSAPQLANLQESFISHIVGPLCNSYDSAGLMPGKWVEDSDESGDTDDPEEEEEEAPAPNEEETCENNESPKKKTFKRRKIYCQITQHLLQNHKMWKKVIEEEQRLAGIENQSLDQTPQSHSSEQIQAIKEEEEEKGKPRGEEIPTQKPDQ

[5] = target: Voltage-dependent L-type calcium channel subunit alpha-1C (Rattus norvegicus, UniProt P22002); type: functional
Chain of Voltage-dependent L-type calcium channel subunit alpha-1C (P22002 whole entry): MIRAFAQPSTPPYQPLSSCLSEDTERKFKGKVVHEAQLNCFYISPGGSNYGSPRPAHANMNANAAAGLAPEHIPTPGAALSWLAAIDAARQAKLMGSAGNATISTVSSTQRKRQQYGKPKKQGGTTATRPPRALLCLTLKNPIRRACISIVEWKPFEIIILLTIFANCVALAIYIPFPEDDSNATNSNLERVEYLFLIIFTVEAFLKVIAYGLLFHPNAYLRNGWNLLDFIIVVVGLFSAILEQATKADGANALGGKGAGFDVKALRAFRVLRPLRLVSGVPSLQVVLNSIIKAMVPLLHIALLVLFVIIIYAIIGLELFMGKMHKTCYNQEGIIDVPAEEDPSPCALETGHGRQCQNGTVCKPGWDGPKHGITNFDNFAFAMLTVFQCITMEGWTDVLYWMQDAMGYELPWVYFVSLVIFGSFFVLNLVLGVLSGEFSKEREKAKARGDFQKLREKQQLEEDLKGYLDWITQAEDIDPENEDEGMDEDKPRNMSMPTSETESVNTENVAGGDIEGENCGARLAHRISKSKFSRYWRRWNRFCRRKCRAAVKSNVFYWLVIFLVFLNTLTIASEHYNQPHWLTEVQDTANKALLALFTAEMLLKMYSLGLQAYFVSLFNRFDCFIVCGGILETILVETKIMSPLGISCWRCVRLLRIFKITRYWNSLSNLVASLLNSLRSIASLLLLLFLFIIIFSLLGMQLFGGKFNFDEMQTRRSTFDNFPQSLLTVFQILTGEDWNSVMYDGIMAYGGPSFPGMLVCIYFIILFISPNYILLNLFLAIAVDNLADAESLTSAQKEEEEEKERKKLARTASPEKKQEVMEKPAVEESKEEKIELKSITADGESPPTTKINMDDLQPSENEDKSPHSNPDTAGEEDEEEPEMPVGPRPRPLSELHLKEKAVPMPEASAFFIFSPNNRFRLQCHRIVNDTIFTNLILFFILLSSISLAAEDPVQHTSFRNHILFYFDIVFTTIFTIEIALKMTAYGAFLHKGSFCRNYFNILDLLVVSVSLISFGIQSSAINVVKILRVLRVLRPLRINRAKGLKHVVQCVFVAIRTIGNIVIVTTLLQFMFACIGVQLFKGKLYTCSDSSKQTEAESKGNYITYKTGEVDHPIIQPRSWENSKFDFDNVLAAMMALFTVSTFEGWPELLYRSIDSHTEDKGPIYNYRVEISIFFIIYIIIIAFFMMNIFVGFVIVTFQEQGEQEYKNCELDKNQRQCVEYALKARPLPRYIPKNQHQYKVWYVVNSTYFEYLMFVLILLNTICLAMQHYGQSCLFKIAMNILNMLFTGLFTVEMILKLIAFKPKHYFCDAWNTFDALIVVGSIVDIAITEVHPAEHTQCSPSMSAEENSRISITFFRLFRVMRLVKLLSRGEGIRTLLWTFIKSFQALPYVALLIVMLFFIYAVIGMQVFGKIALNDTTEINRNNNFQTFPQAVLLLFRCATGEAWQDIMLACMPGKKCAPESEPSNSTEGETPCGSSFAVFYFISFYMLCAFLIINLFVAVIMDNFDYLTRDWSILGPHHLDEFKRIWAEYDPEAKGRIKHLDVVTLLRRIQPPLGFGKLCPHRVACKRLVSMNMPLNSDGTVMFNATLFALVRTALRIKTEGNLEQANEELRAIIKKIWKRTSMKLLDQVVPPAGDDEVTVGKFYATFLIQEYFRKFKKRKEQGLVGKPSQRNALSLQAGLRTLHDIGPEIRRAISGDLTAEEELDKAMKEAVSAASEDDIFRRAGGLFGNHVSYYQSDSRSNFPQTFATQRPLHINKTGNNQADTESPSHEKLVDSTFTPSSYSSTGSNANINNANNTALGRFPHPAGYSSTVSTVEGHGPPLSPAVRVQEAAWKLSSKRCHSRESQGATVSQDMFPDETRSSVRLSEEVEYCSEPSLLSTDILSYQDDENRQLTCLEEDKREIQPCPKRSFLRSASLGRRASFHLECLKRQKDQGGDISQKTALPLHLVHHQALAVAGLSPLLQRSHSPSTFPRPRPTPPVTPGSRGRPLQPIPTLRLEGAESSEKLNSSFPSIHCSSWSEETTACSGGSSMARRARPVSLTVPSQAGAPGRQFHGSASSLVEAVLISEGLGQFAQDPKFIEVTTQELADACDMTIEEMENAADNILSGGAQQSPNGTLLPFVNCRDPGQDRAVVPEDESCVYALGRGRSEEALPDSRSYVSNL

[6] = target: Histamine H2 receptor (Homo sapiens, UniProt P25021); type: functional, cell-based
[7] = target: T2, Amine oxidase [flavin-containing] A (Homo sapiens, UniProt P21397); type: functional
T2 sequence (P21397 whole entry): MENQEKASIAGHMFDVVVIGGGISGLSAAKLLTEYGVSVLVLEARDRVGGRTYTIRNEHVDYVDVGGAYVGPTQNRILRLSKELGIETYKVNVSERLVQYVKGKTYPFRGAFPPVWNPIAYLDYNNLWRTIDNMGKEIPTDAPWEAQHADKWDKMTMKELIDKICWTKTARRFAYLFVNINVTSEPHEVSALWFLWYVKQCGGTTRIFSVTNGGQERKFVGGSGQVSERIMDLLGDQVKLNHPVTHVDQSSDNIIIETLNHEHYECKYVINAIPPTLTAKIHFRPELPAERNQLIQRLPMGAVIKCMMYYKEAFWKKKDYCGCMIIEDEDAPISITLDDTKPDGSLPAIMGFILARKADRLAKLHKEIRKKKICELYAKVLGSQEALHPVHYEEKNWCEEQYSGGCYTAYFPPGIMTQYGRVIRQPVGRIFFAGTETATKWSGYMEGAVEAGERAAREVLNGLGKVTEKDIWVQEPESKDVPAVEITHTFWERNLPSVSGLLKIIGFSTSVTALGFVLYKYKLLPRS

[8] = target: T3, Progesterone receptor (Homo sapiens, UniProt P06401); type: functional
T3 sequence (P06401 whole entry): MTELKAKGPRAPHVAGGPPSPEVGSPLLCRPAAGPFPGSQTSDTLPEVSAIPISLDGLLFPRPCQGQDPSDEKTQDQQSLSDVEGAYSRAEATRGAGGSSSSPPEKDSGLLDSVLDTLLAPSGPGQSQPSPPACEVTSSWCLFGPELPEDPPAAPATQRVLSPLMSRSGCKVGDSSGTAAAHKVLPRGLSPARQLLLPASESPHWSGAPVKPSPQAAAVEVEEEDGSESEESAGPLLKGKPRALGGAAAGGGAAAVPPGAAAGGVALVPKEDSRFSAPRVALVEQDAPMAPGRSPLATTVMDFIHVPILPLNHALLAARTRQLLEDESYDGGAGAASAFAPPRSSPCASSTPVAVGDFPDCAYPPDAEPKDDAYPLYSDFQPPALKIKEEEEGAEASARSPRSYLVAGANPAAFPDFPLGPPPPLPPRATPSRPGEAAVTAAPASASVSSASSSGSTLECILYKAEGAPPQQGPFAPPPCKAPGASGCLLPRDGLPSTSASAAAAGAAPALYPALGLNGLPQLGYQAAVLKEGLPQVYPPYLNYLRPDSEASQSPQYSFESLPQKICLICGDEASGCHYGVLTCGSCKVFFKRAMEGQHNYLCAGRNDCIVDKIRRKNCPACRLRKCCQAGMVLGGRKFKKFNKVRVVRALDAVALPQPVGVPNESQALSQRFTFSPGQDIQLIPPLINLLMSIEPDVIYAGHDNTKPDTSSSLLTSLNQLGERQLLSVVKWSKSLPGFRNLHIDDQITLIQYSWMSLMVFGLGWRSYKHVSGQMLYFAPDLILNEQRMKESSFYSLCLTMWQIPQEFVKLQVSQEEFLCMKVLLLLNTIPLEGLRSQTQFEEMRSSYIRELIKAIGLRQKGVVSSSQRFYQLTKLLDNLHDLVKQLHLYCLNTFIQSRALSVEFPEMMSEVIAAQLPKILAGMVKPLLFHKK

[9] = target: T4, 5-hydroxytryptamine receptor 1A (Homo sapiens, UniProt P08908); type: functional, cell-based
T4 sequence (P08908 whole entry): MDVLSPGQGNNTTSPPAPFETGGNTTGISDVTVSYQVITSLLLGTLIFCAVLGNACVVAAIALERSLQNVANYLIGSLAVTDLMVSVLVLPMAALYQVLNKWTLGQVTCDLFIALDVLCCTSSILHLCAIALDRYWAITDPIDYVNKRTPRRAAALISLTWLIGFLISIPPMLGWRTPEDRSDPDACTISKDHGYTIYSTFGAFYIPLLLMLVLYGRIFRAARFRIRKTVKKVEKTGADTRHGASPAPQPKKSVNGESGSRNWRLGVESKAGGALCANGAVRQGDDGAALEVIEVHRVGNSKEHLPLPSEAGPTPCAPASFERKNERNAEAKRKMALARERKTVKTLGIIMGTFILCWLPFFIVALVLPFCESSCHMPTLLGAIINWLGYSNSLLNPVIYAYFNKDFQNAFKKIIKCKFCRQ

[10] = target: D(3) dopamine receptor (Homo sapiens, UniProt P35462)
Chain of D(3) dopamine receptor (P35462 whole entry): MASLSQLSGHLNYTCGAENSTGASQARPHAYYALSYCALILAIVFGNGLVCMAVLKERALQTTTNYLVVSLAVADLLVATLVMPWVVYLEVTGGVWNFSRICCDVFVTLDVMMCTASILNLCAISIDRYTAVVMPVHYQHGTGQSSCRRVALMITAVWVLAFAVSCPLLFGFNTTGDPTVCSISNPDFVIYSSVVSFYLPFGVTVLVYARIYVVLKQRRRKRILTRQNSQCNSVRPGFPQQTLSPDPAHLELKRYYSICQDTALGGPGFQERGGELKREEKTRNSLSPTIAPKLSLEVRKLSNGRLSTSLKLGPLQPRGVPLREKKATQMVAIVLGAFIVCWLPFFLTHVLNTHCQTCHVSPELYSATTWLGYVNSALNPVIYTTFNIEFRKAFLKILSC

Measured: AC50
Further: assay procedure not described here.

Chain of 3',5'-cyclic-AMP phosphodiesterase 4D (Q08499 whole entry): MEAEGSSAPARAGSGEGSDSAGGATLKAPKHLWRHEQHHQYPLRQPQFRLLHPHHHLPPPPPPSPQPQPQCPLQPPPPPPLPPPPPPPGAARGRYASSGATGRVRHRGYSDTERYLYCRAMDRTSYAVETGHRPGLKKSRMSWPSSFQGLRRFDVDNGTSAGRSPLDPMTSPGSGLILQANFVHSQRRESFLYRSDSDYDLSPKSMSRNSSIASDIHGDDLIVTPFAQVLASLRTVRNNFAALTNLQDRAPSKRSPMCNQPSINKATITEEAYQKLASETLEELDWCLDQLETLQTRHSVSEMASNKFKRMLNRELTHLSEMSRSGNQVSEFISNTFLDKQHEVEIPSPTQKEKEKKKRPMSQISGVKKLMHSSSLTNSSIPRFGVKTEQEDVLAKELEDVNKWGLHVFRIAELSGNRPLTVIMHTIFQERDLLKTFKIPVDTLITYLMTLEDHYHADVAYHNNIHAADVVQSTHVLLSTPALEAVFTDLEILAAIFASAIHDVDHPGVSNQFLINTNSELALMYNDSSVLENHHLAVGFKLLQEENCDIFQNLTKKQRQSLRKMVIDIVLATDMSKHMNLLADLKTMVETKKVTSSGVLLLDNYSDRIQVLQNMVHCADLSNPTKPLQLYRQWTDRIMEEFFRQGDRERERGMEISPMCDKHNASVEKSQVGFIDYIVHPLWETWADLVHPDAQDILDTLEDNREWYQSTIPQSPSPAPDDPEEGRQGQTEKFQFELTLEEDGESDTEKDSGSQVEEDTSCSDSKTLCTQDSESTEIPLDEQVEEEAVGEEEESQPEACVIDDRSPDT
Chain of Melanocortin receptor 3 (P41968 whole entry): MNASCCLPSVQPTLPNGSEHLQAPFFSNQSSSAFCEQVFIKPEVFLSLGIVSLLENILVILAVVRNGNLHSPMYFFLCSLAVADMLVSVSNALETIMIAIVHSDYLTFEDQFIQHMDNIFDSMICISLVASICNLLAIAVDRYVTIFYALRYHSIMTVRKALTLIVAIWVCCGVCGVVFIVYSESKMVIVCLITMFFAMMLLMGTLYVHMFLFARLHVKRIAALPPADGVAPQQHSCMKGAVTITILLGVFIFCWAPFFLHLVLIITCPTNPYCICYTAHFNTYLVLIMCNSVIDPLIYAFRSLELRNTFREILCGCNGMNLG

CC(C)N(CCCCOCC(=O)O)c1cnc(-c2ccccc2)c(-c2ccccc2)n1
10.1 µM: [3]
14.3 µM: [2]
> 30 µM: [1] | [4] | [5] | [6] | [7] | [8] | [9] | [10]

CC(=O)c1ccc(S(=O)(=O)NC(=O)NC2CCCCC2)cc1 [ACETOHEXAMIDE]
> 10 µM: [1] | [3] | [5] | [6] | [7] | [8]
> 30 µM: [2] | [4] | [9] | [10]

COc1cc(C)c(/C=C/C(C)=C/C=C/C(C)=C/C(=O)O)c(C)c1C [ACITRETIN]
> 30 µM: [2] | [8] | [10]
> 10 µM: [1] | [3] | [4] | [5] | [6] | [7] | [9]

CCC1(CCC(C)C)C(=O)NC(=O)NC1=O [AMOBARBITAL]
> 30 µM: [2] | [4] | [10]
> 10 µM: [1] | [3] | [5] | [6] | [7] | [8] | [9]

COc1ccc(C2C(=O)c3ccccc3C2=O)cc1 [ANISINDIONE]
> 10 µM: [1] | [3] | [5] | [9]
> 30 µM: [2] | [4] | [6] | [8] | [10]
91 µM: [7]

O=C(O)CCNC(=O)c1ccc(/N=N/c2ccc(O)c(C(=O)O)c2)cc1 [BALSALAZIDE]
> 30 µM: [1] | [2] | [4] | [5] | [6] | [7] | [8] | [9] | [10]
27.4 µM: [3]

O=C(O)c1ccc(NC(=O)[C@H](Cc2ccc(O)cc2)NC(=O)c2ccccc2)cc1 [BENTIROMIDE]
> 30 µM: [2] | [4] | [10]
> 10 µM: [1] | [3] | [5] | [6] | [7] | [8] | [9]

NS(=O)(=O)c1cc2c(cc1Cl)N=C(CSCc1ccccc1)NS2(=O)=O [BENZTHIAZIDE]
> 30 µM: [2] | [4] | [6] | [7] | [8] | [10]
> 10 µM: [1] | [3] | [5] | [9]

O=C(CCCN1CCC(O)(c2ccc(Br)cc2)CC1)c1ccc(F)cc1 [BROMPERIDOL]
> 30 µM: [1] | [2] | [3] | [4] | [5] | [6] | [7] | [8] | [9]
0.041 µM: [10]

Clc1ccc(CCC(Cn2ccnc2)Sc2c(Cl)cccc2Cl)cc1 (centres undefined) [BUTOCONAZOLE]
16 µM: [3]
11 µM: [2]
17 µM: [5]
> 30 µM: [1] | [4] | [6] | [7] | [8] | [9] | [10]

CC(CN(C)C)C(C)(O)Cc1ccc(Cl)cc1 (centres undefined) [CLOBUTINOL]
> 10 µM: [5] | [6] | [7] | [9]
> 30 µM: [1] | [2] | [3] | [4] | [8] | [10]

C[C@@H]1C[C@H]2[C@@H]3CCC4=CC(=O)C=C[C@]4(C)[C@@]3(F)[C@@H](O)C[C@]2(C)[C@@]1(O)C(=O)CO [DEXAMETHASONE]
> 30 µM: [1] | [2] | [3] | [4] | [6] | [7] | [10]
> 10 µM: [5] | [9]
0.2 µM: [8]

CC(C)[C@@H](C)/C=C/[C@@H](C)[C@H]1CC[C@H]2/C(=C/C=C3\C[C@@H](O)CC[C@@H]3C)CCC[C@]12C [DIHYDROTACHYSTEROL]
> 10 µM: [1] | [3] | [5] | [6] | [7] | [9]
> 30 µM: [2] | [4] | [8] | [10]

O=C1Nc2ccc(Cl)cc2C(c2ccccc2Cl)=NC1O (centres undefined) [LORAZEPAM]
> 10 µM: [5] | [6] | [7] | [9] | [10]
> 30 µM: [1] | [2] | [3] | [4]

COc1ccc2cc(CCC(C)=O)ccc2c1 [NABUMETONE]
> 30 µM: [2] | [4] | [6] | [10]
> 10 µM: [1] | [3] | [5] | [8] | [9]

Cc1ccnc2c1NC(=O)c1cccnc1N2C1CC1 [NEVIRAPINE]
> 10 µM: [2] | [5] | [6] | [7] | [9] | [10]
4.5 µM: [4]
> 30 µM: [1]
1.02 µM: [3]

CCC(=O)O[C@](Cc1ccccc1)(c1ccccc1)[C@H](C)CN(C)C [PROPOXYPHENE]
> 30 µM: [1] | [2] | [3] | [4]
> 10 µM: [5] | [6] | [7] | [9] | [10]

O=c1c(O)c(-c2ccc(O)c(O)c2)oc2cc(O)cc(O)c12 [QUERCETIN]
> 30 µM: [1] | [4] | [6] | [9] | [10]
4.2 µM: [3]
> 10 µM: [2] | [5]
5.6 µM: [7]

CCOC(=O)c1ccc(C#Cc2ccc3c(c2)C(C)(C)CCS3)nc1 [TAZAROTENE]
> 10 µM: [5] | [7]
> 30 µM: [1] | [2] | [3] | [4] | [6] | [9] | [10]
